In brackets after ≈: the same amount, converted by molar mass. Where two headings read alike, the source gives them in different places. Marks after values point to notes of the source that are not given here.
Legend:
P. aeruginosa ATCC 27853 [1] = tested on: P. aeruginosa ATCC 27853; parameters: method as in Cadelis et al. [15]; settings: doxycycline at 4.5 µM, ref Cadelis et al. [15], cited from earlier work; for Dox/P. a fold change (ratio between intrinsic MIC of the test compound and combination MIC): P. aeruginosa ATCC 27853; for Dox/P. a: concentration required to restore doxycycline activity (combination MIC): P. aeruginosa
human red blood cells [2] = tested on: human red blood cells; parameters: method as in Cadelis et al. [15]; settings: ref Cadelis et al. [15]; cited from earlier work
[3] = tested on: Staphylococcus aureus (ATCC 25923); parameters: method as in Cadelis et al. [15]; settings: S. aureus ATCC 25923; ref Cadelis et al. [15]; cited from earlier work
[4] = tested on: Escherichia coli (ATCC 25922); parameters: method as in Cadelis et al. [15]; settings: E. coli ATCC 25922; ref Cadelis et al. [15]; cited from earlier work
[5] = tested on: HEK293 (human embryonic kidney) cells; parameters: method as in Cadelis et al. [15]; settings: ref Cadelis et al. [15], read-out: Cytotoxicity: concentration of compound at 50% cytotoxicity (IC50); cited from earlier work
[6] = tested on: Acinetobacter baumannii (ATCC 19606); parameters: method as in Cadelis et al. [15]; settings: A. baumannii ATCC 19606; ref Cadelis et al. [15]; cited from earlier work
[7] = tested on: Pseudomonas aeruginosa (ATCC 27853); parameters: method as in Cadelis et al. [15]; settings: P. aeruginosa ATCC 27853; ref Cadelis et al. [15]; cited from earlier work
[8] = tested on: Cryptococcus neoformans (ATCC 208821); parameters: method as in Cadelis et al. [15]; settings: C. neoformans ATCC 208821; ref Cadelis et al. [15]; cited from earlier work
[9] = tested on: Candida albicans (ATCC 90028); parameters: method as in Cadelis et al. [15]; settings: C. albicans ATCC 90028; ref Cadelis et al. [15]; cited from earlier work
MRSA (ATCC 43300) [10] = settings: ref Cadelis et al. [15]; cited from earlier work
[11] = tested on: Klebsiella pneumoniae (ATCC 700603); parameters: method as in Cadelis et al. [15]; settings: K. pneumoniae ATCC 700603; ref Cadelis et al. [15]; cited from earlier work
[12] = tested on: Candida albicans (ATCC 90028); experiment: Intrinsic antifungal activity (MIC) against C. albicans; type: cell-based; settings: ATCC90028, C. albicans ATCC 90028, mean (n = 2), read-out: MIC C. a
Procedure, shortened: (§1)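 MIC values come from two sources: bacteria tested by previously reported protocols, and Candida and Cryptococcus tested at the Community for Open Antimicrobial Drug Discovery under standard conditions.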

E. coli ATCC 25922 = experiment: Enhancement of erythromycin action against E. coli; type: cell-based, Escherichia coli; settings: erythromycin at 10.9 µM
Method: (§2) Antibiotic enhancer concentrations were determined using previously reported protocols.

[13] = tested on: Escherichia coli (ATCC 25922); experiment: Intrinsic antimicrobial activity (MIC) against E. coli; type: cell-based; settings: ATCC25922, E. coli ATCC 25922, mean (n = 3), read-out: MIC E. c
Procedure, shortened: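 Fungal strains were tested by CO-ADD at The University of Queensland using that facility's standard protocols, whereas bacterial MICs followed methods published earlier.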

[14] = tested on: Cryptococcus neoformans (ATCC 208821); experiment: Intrinsic antifungal activity (MIC) against C. neoformans; type: cell-based; settings: ATCC208821, C. neoformans ATCC 208821, mean (n = 2), read-out: MIC C. n
Procedure, shortened: as §1

[15] = tested on: Klebsiella pneumoniae (ATCC 700603); experiment: Intrinsic antimicrobial activity (MIC) against K. pneumoniae; type: cell-based; settings: ATCC700603, K. pneumoniae ATCC 700603, mean (n = 2), read-out: MIC K. p
human red blood cells [16] = experiment: Hemolytic assay; type: cell-based; settings: mean (n = 2)
Method: Hemolysis assays were conducted using the protocols previously reported.

[17] = tested on: Staphylococcus aureus (ATCC 25923); experiment: Intrinsic antimicrobial activity (MIC) against S. aureus; type: cell-based; settings: ATCC25923, S. aureus ATCC 25923, mean (n = 3), read-out: MIC S. a
Procedure, shortened: as §1

MRSA (ATCC 43300) [18] = experiment: Intrinsic antimicrobial activity (MIC) against MRSA; type: cell-based; settings: Staphylococcus aureus, MRSA ATCC 43300; mean (n = 2); read-out: MIC MRSA
Procedure, shortened: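 Bacterial susceptibility was determined following previously reported protocols. The antifungal evaluations were carried out at the Community for Open Antimicrobial Drug Discovery (University of Queensland, Australia) under its standard protocols.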

P. aeruginosa ATCC 27853 [19] = experiment: Enhancement of doxycycline action against P. aeruginosa; type: cell-based, Pseudomonas aeruginosa; settings: doxycycline at 4.5 µM
Method: as §2

MRSA (CF-Marseille) = experiment: Real time growth inhibition curves, microdilution MIC and MBC, MRSA (CF-Marseille); type: cell-based, Staphylococcus aureus
Source text: (§3) We next assessed the kinetics of antibacterial activity of 15c towards the Gram-positive bacteria S. aureus ATCC 25923 and MRSA (CF-Marseille) by measuring real time growth inhibition curves.

Cytotoxicity assay = type: cell-based; settings: human; HEK293 cells; mean (n = 2); read-out: Cytotoxicity: concentration of compound at 50% cytotoxicity (IC50)
Method: Cytotoxicity assays were conducted using the protocols previously reported.

[20] = tested on: Pseudomonas aeruginosa (ATCC 27853); experiment: Intrinsic antimicrobial activity (MIC) against P. aeruginosa; type: cell-based; settings: ATCC27853, P. aeruginosa ATCC 27853, mean (n = 3), read-out: MIC P. a
Procedure, shortened: as §1

S. aureus ATCC 25923 = experiment: Real time growth inhibition curves, microdilution MIC and MBC, S. aureus; type: cell-based, Staphylococcus aureus
Source text: as §3

[21] = tested on: Acinetobacter baumannii (ATCC 19606); experiment: Intrinsic antimicrobial activity (MIC) against A. baumannii; type: cell-based; settings: ATCC19606, A. baumannii ATCC 19606, mean (n = 2), read-out: MIC A. b
[22] = lowest tested concentration 6.4 μM

SMILES	Dox/P. a fold change (ratio between intrinsic MIC of the test compound and combination MIC) (P. aeruginosa ATCC 27853 [1]) [fold]	Dox/P. a: concentration required to restore doxycycline activity (combination MIC) (P. aeruginosa ATCC 27853 [1]) [µM]	Hemolysis: concentration of compound at 10% hemolytic activity (HC10) (human red blood cells [2]) [µM]	MIC S. a [3] [µM]	MIC E. c [4]	IC50 [5] [µM]	MIC A. b [6] [µM]	MIC P. a [7] [µM]	MIC [12] [µM]	Eryth/E. c: concentration required to restore erythromycin activity (combination MIC) (E. coli ATCC 25922) [µM]	MIC [13] [µM]	MIC [14] [µM]	MIC [15] [µM]	Hemolysis: concentration of compound at 10% hemolytic activity (HC10) (human red blood cells [16]) [µM]	MIC [17] [µM]	MIC (MRSA (ATCC 43300) [18]) [µM]	Dox/P. a: concentration required to restore doxycycline activity (combination MIC) (P. aeruginosa ATCC 27853 [19]) [µM]	IC50 (Cytotoxicity assay) [µM]	MIC [20] [µM]	MIC [21] [µM]	further results
O=C(Cc1c[nH]c2ccccc12)NCCCNCCCCNCCCNC(=O)Cc1c[nH]c2ccccc12 [Compound 14a]	> 4	50	>43	200 (≈ 103 µg/mL)	>200 ^j µM	> 43	>62	>200													MIC C. n [8]: >62 µM; MIC C. a [9]: >62 µM; MIC MRSA (MRSA (ATCC 43300) [10]): >62 µM; MIC K. p [11]: >62 µM
O=C(Cc1c[nH]c2ccc(Br)cc12)NCCCNCCCCCCCNCCCNC(=O)Cc1c[nH]c2ccc(Br)cc12.O=C(O)C(F)(F)F.O=C(O)C(F)(F)F [Compound 15c, N^1,N^7-Bis(3-(2-(5-bromo-1H-indol-3-yl)acetamido)propyl)heptane-1,7-diaminium 2,2,2-trifluoroacetate]									≤ 0.26	6.62	13.2	≤ 0.26	> 34	>34	12.7	≤ 0.26	6.62	> 34	106	> 34	mode of antibacterial action (MBC versus MIC) (MRSA (CF-Marseille)): bactericidal; MIC (MRSA (CF-Marseille); Staphylococcus aureus, matches real time growth curve at 18 h, read-out: MIC (classical microdilution methodology)): 12.7 µM; MBC (MRSA (CF-Marseille); Staphylococcus aureus, read-out: minimum bactericidal concentration (MBC)): 12.7 µM; real time growth inhibition (MRSA (CF-Marseille); at 25.4 μM and 12.7 μM): completely inhibited; time after which bacterial growth was detected (MRSA (CF-Marseille); [22]): > 4 h; mode of antibacterial action (MBC versus MIC) (S. aureus ATCC 25923): bactericidal; MIC (S. aureus ATCC 25923; Staphylococcus aureus, ATCC25923, matches real time growth curve at 18 h, read-out: MIC (classical microdilution methodology)): 12.7 µM; MBC (S. aureus ATCC 25923; Staphylococcus aureus, ATCC25923, read-out: minimum bactericidal concentration (MBC)): 12.7 µM; real time growth inhibition (S. aureus ATCC 25923; at 25.4 μM and 12.7 μM): completely inhibited; time after which bacterial growth was detected (S. aureus ATCC 25923; [22]): > 4 h
COc1ccc2[nH]cc(CC(=O)NCCCNCCCCNCCCNC(=O)Cc3c[nH]c4ccc(OC)cc34)c2c1 [Compound 16a]	> 1	200	>40	200 (≈ 115 µg/mL)	>200 µM	> 40	>55	>200													MIC C. n [8]: >55 µM; MIC C. a [9]: >55 µM; MIC MRSA (MRSA (ATCC 43300) [10]): >55 µM; MIC K. p [11]: >55 µM
O=C(Cc1c[nH]c2c(F)cccc12)NCCCNCCCCCCNCCCNC(=O)Cc1c[nH]c2c(F)cccc12.O=C(O)C(F)(F)F.O=C(O)C(F)(F)F [Compound 18b, N^1,N^6-Bis(3-(2-(7-fluoro-1H-indol-3-yl)acetamido)propyl)hexane-1,6-diaminium 2,2,2-trifluoroacetate]									39.6	> 247	> 247	< 0.2	> 40	>40	124	< 0.2	247	> 40	> 247	> 40	Dox/P. a fold change (ratio between intrinsic MIC of the test compound and combination MIC) (P. aeruginosa ATCC 27853 [19]): > 1 fold
COc1cccc2c(CC(=O)NCCCNCCCCCCCNCCCNC(=O)Cc3c[nH]c4c(OC)cccc34)c[nH]c12.O=C(O)C(F)(F)F.O=C(O)C(F)(F)F [Compound 19c, N^1,N^7-Bis(3-(2-(7-methoxy-1H-indol-3-yl)acetamido)propyl)heptane-1,7-diaminium 2,2,2-trifluoroacetate]									> 38	236	236	≤ 0.3	> 38	>38	29.5	37.8	118	> 38	> 236	> 38	Dox/P. a fold change (ratio between intrinsic MIC of the test compound and combination MIC) (P. aeruginosa ATCC 27853 [19]): > 2 fold
